This data set can be described thus: Thermal property drop index (TDI) calculated from HPLC peak area fractions of recycled BHET. Type of data set: physicochemical. The settings on record: thermal property drop index = [DEG-ester-1] + [DEG-ester-2] × 2 + exp[HA-ester], from HPLC peak area fractions (%). As to the method: About 0.01 g of recycled bis(2-hydroxyethyl) terephthalate was diluted in about 20 ml of methanol, which was analyzed by high-performance liquid chromatography (HPLC) (model: Waters e2695, column: C18 (4.6 × 250 mm), 5 µm, UV detector: 242 nm, injection volume: 10 µl, eluent (gradient) A: H2O + H3PO4, B: acetonitrile) Thereafter, the peak area fractions (%) of the following components among the total peak area of HPLC were obtained. • MHET: monohydroxyethyl terephthalate • BHET: bis(2-hydroxyethyl) terephthalate, • DEG-ester-1: 2-hydroxyethyl[2-(2-hydroxyethoxy)ethyl] terephthalate • DEG-ester-2: bis[2-(2-hydroxyethoxy)ethyl]benzene-1,4-dicarboxylate • HA-ester: 2-hydroxyethyl(2-acetoxyethyl) terephthalate • Dimer: BHET dimer • Trimer: BHET trimer
Recycled bis(2-hydroxyethyl) terephthalate was subjected to HPLC analysis in the same manner as in section (1) above. The thermal property drop index (TDI) defined by the following equation was then calculated. TDI = [DEG−ester−1] + [DEG−ester−2] × 2 + exp^(∧) [HA−ester] [formula]
Here, DEG-ester-1 is the peak area fraction (%) of 2-hydroxyethyl[2-(2-hydroxyethoxy)ethyl] terephthalate, DEG-ester-2 is the peak area fraction (%) of bis[2-(2-hydroxyethoxy)ethyl]benzene-1,4-dicarboxylate, and HA-ester is the peak area fraction (%) of 2-hydroxyethyl(2-acetoxyethyl) terephthalate. It was calculated by taking only the numerical values excluding the units of these parameters.

Turning to `O=C(OCCO)c1ccc(C(=O)OCCO)cc1` [r-BHET A1, bis(2-hydroxyethyl) terephthalate], the TDI (listed as A1) is listed as 1.71.
With `O=C(OCCO)c1ccc(C(=O)OCCO)cc1` [r-BHET A2, bis(2-hydroxyethyl) terephthalate], the TDI (listed as A2) is reported as 1.59.
For `O=C(OCCO)c1ccc(C(=O)OCCO)cc1` [r-BHET A3, bis(2-hydroxyethyl) terephthalate], the TDI (listed as A3) is 1.74.
With `O=C(OCCO)c1ccc(C(=O)OCCO)cc1` [r-BHET A4, bis(2-hydroxyethyl) terephthalate], the TDI (listed as A4) was 1.86.
`O=C(OCCO)c1ccc(C(=O)OCCO)cc1` [r-BHET A5, bis(2-hydroxyethyl) terephthalate]: the TDI (listed as A5) is reported as 2.55.
As to `O=C(OCCO)c1ccc(C(=O)OCCO)cc1` [r-BHET A6, bis(2-hydroxyethyl) terephthalate], the TDI (listed as A6) was 1.86.
Regarding `O=C(OCCO)c1ccc(C(=O)OCCO)cc1` [r-BHET A7, bis(2-hydroxyethyl) terephthalate], the TDI (listed as A7) is listed as 1.71.
With `O=C(OCCO)c1ccc(C(=O)OCCO)cc1` [r-BHET B1, bis(2-hydroxyethyl) terephthalate, reference compound], the TDI (listed as B1) was 9.23.
Turning to `O=C(OCCO)c1ccc(C(=O)OCCO)cc1` [r-BHET B2, bis(2-hydroxyethyl) terephthalate, reference compound], the TDI (listed as B2) is reported as 6.87.

The record behind these values is EP4772560A1, “POLYESTER RESIN COMPRISING REGENERATED BIS(2-HYDROXYETHYL)TEREPHTHALATE, AND ARTICLE COMPRISING POLYESTER RESIN” (SK Chemicals Co., Ltd., priority 2023, dated 2025).
